Experimental data from patent US20250186463A1, “ABIRATERONE DECANOATE PRODRUGS AND USE IN THERAPY” (PROPELLA THERAPEUTICS, INC., priority 2022, published 2025).

Tests used:
[1] = test system: Prostate Specific Antigen (PSA); experiment: Phase 1/2a study: PSA response; type: in vivo, human; settings: for Undetectable PSA: defined as PSA < 0.2 ng/mL
Procedure: This is a Phase 1/2a, Open-label, Multicenter Study of Intramuscular Abiraterone Decanoate Depot in Patients with Advanced Prostate Cancer.
(§1) Formulations and dosing regimen: The formulation used in the study (abiraterone decanoate for intramuscular [i.m.] injection) is a solution formulation of abiraterone decanoate at a concentration of 180 mg/mL and will be provided as a 10 mL vial containing 990 mg of abiraterone decanoate in 5.5 mL of solution. See further details of the formulations in Example 2 (for each milliliter: Abiraterone Decanoate, about 180 mg/mL; Benzyl Alcohol, about 100 mg/mL; Benzyl Benzoate, about 200 mg/mL; and Corn oil, q.s. to 1 mL). Abiraterone Decanoate will be administered as an i.m. injection every 84 days (±3 days). Dose escalation will proceed with a modified Fibonacci sequence. Based on emerging data, intermediate doses may be evaluated.
Study Design: This is a Phase 1/2a, Open-label, Multicenter Study of Intramuscular Abiraterone Decanoate Depot in Patients with Advanced Prostate Cancer. In Phase 1, all patients will receive i.m. Abiraterone Decanoate depot in 84-day treatment cycles combined with daily oral prednisone or dexamethasone. In Phase 2a, patients will be randomized 1:1 and treated with i.m. Abiraterone Decanoate depot in 84-day treatment cycles in combination with dexamethasone (Arm A) or abiraterone acetate daily+prednisone (Arm B). In both Phases, patients will undergo scheduled periodic assessments of serum testosterone levels. Participants may continue treatment until they meet any discontinuation criteria outlined in the protocol.
(§2) Pharmacodynamic Analysis: Determination of Prostate Specific Antigen (PSA), serum testosterone, dehydroepiandrosterone (DHEA), dehydroepiandrosterone sulfate (DHEA-S), androstenedione, dihydrotestosterone (DHT), progesterone, cortisol, adrenocorticotropic hormone (ACTH), corticosterone, 11-dexoycorticosterone (11-DOC) and 11-deoxycortisol.
Based on the available data, the recommended dose for Phase 2 is about 1260 mg abiraterone decanoate once every three months (12 weeks). All cohorts 1 and 2 in this clinical study were treated with prednisone, 5 mg orally once or twice daily; and all cohorts 3-5 were treated with dexamethasone, 0.5 mg orally once daily. The results shown herein for these cohorts should be understood accordingly.
PSA Levels: the median baseline PSA level was 3.01 ng/mL. […] The table below further summarizes the reduction of PSA observed without elevated progesterone level.

[2] = Phase 1/2a study: plasma pharmacokinetics; type: in vivo, human; settings: cohort 3 (720 mg), patient 08-1301, all values
Procedure: as §1
Pharmacokinetic results: the partial results from pharmacokinetic analysis for cohorts 1, 2, 3, 4, and 5 (180 mg, 360 mg, 720 mg, 1260 mg, and 1800 mg abiraterone decanoate, respectively) are shown in FIGS. 4A-4E. […] And for abiraterone decanoate, minimal increase in AbiDec for 08-1301 was observed which declined to 0 ng/ml thereafter.

[3] = Phase 1/2a study: safety and tolerability; type: in vivo, human
Source text: At each dose cohort, 3 to 4 patients will be enrolled. If none of the patients experience a dose-limiting toxicity (DLT) in the first 28 days (the DLT period) the dose will be escalated in the next cohort. A DLT will be defined as any of the following using on the Common Terminology Criteria for Adverse Events (CTCAE) criteria v5.0 regardless of attribution to the study drug unless it is clearly due to the patient's underlying disease or extraneous causes:
Safety Analysis: Adverse events will be summarized by severity, seriousness, and relationship to study treatments. Laboratory data, vital signs, PFTs and ECGs will be compared to baseline values.

[4] = test system: serum DHEA-S, DHEA, androstenedione; experiment: Phase 1/2a study: serum DHEA-S, DHEA, androstenedione; type: in vivo, human
Source text: as §2

[5] = test system: lymph node lesions; experiment: Follow-up analysis and post-study PET/CT scan (Patient 1); type: in vivo, human; settings: Patient 1, 180 mg, CSPC; enzalutamide started after study
Procedure: Patient 1. This patient is in cohort 1, which was administered 180 mg of abiraterone decanoate. This patient is […], with CSPC, with a Gleason score ≤6, who entered the study with left common iliac and femoral lymph node involvement and measurable PSA. The patient received degarelix (March thru May 2021) and leuprolide (starting June 2021). Abiraterone decanoate was injected to the patient on Jul. […] On Sep. 24, 2021, this patient started enzalutamide (Xtandi) treatment.

[6] = Abiraterone plasma exposure in monkeys, vehicle comparison; type: in vivo; settings: corn oil 70%, benzyl benzoate 20%, same concentration and dose
Source text: In some embodiments, the abiraterone prodrug formulation can comprise a combination of benzyl alcohol and benzyl benzoate as cosolvents. In some embodiments, the benzyl alcohol can be present in an amount of about 0-20% (e.g., 0-15% or 0-10%, such as about 10%) of the solvent, and benzyl benzoate can be present in an amount of about 0-50% (e.g., 0-35% or 0-30%, such as about 20%) of the solvent, wherein the balance of the solvent can be any one or more of the pharmaceutically acceptable oil described herein, such as corn oil, castor oil, sesame oil, peanut oil, cottonseed oil, and/or Miglyol 812, etc.

[7] = Animal studies of intramuscular abiraterone decanoate: liver toxicity; type: in vivo; settings: intramuscular administration, tested doses

Compound: CCCCCCCCCC(=O)O[C@H]1CC[C@@]2(C)C(=CC[C@@H]3[C@@H]2CC[C@]2(C)C(c4cccnc4)=CC[C@@H]32)C1 [abiraterone decanoate]
- percentages of patients achieving PSA50 and 90 versus those reported for abiraterone acetate (AA) and enzalutamide (Enza) ([1]; Chemo-naïve CRPC, FIGS. 9A and 9B): much higher
- PSA at follow-up ([1]; Patient 1, 180 mg, CSPC, enzalutamide started after study): below LLOQ
- patients with PSA50 ([1]; cohorts 3, 4, and 5): 15 out of 16
- patients with PSA90 ([1]; cohorts 3, 4, and 5): 8 out of 16
- Best PSA Response ([1]; patient 02-1403, Cohort 4, 1260 mg, mCRPC, Visit C4D28): −98%
- Undetectable PSA ([1]; patient 02-1403, Cohort 4, 1260 mg, mCRPC): No
- Best PSA Response ([1]; patient 02-1405, Cohort 4, 1260 mg, mCRPC, Visit C1D56): −94%
- Undetectable PSA ([1]; patient 02-1405, Cohort 4, 1260 mg, mCRPC): No
- Best PSA Response ([1]; patient 02-1504, Cohort 5, 1800 mg, mCRPC, Visit C1D28): −92.4
- Undetectable PSA ([1]; patient 02-1504, Cohort 5, 1800 mg, mCRPC): No
- Best PSA Response ([1]; patient 02-1505, Cohort 5, 1800 mg, mCSPC, Visit C1D84): −98%
- Undetectable PSA ([1]; patient 02-1505, Cohort 5, 1800 mg, mCSPC): No
- Best PSA Response ([1]; patient 04-1406, Cohort 4, 1260 mg, mCSPC, Visit C1D56): −82%
- Undetectable PSA ([1]; patient 04-1406, Cohort 4, 1260 mg, mCSPC): No
- Best PSA Response ([1]; patient 04-1503, Cohort 5, 1800 mg, mCSPC, Visit C1D84): −67%
- Undetectable PSA ([1]; patient 04-1503, Cohort 5, 1800 mg, mCSPC): Yes
- Best PSA Response ([1]; patient 04-1506, Cohort 5, 1800 mg, mCRPC, Visit C1D28): −54%
- Undetectable PSA ([1]; patient 04-1506, Cohort 5, 1800 mg, mCRPC): No
- Best PSA Response ([1]; patient 06-1401, Cohort 4, 1260 mg, mCRPC, Visit C3D84): −99.97%
- Undetectable PSA ([1]; patient 06-1401, Cohort 4, 1260 mg, mCRPC): Yes
- Best PSA Response ([1]; patient 06-1402, Cohort 4, 1260 mg, mCRPC, Visit C4D28): −93%
- Undetectable PSA ([1]; patient 06-1402, Cohort 4, 1260 mg, mCRPC): No
- Best PSA Response ([1]; patient 06-1404, Cohort 4, 1260 mg, mCSPC, Visit C2D84): −67%
- Undetectable PSA ([1]; patient 06-1404, Cohort 4, 1260 mg, mCSPC): Yes
- Best PSA Response ([1]; patient 06-1501, Cohort 5, 1800 mg, mCRPC, Visit C1D84): 48%
- Undetectable PSA ([1]; patient 06-1501, Cohort 5, 1800 mg, mCRPC): No
- Best PSA Response ([1]; patient 06-1502, Cohort 5, 1800 mg, mCSPC, Visit C2D84): −99.6%^
- Undetectable PSA ([1]; patient 06-1502, Cohort 5, 1800 mg, mCSPC): Yes
- plasma abiraterone values [2]: below the LLOQ
- increases in upstream steroids from CYP17A1 hydroxylase, compared with Zytiga ([3]; Phase 1 study): far less than observed with Zytiga
- safety issues relating to mineralocorticoid excess ([3]; Phase 1 study, to date): no safety issues relating to mineralocorticoid excess
- safety profile ([3]; all cohorts 1-5): excellent
- tolerability in human subjects ([3]; in vivo): generally well tolerated
- serum DHEA-S level vs baseline ([4]; cohorts 1-5, FIG. 3B): significantly reduced
- serum DHEA level vs baseline ([4]; cohorts 1-5, FIG. 3C): significantly reduced
- serum androstenedione level vs baseline ([4]; cohorts 1-5, FIG. 3D): significantly reduced
- lymph node lesions on post-study PET/CT scan [5]: complete resolution of prior lymph node lesions
- abiraterone plasma exposure versus corn oil 90% / benzyl alcohol 10% formulation [6]: much higher abiraterone plasma exposure
- liver toxicity [7]: no liver toxicity was observed
